Assay results: PMC6330093 (Bioconjugate chemistry, 2017)

What was measured:
proteinase K = proteinase K (Parengyodontium album, UniProt P06873); experiment: HPLC-based proteolysis assay with proteinase K; assay type: in vitro ADME
[1] = variable temperature CD, 50 μM protein, 20 mM sodium phosphate buffer, pH 7

Chain of proteinase K (P06873 106-384, species assumed): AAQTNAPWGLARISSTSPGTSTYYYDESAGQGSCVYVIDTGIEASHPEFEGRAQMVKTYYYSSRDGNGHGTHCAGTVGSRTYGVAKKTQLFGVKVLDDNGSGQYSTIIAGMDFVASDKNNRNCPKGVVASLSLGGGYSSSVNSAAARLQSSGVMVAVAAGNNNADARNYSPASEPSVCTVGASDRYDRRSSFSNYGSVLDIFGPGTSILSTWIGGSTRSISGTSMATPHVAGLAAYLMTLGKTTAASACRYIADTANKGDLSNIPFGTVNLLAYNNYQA

Structure (SMILES) | k, apparent proteolysis rate constant (proteinase K) [s^−1 × 10^3] | Tm (melting temperature) [1] [°C]
CC[C@H](C)[C@H](NC(=O)[C@H](Cc1c[nH]cn1)NC(=O)[C@H](CC(N)=O)NC(=O)[C@H](Cc1ccccc1)NC(=O)[C@H](Cc1ccc(O)cc1)NC(=O)[C@H](Cc1ccc(O)cc1)NC(=O)[C@@H](NC(=O)[C@H](CCCNC(=N)N)NC(=O)CNC(=O)[C@H](CO)NC(=O)[C@H](CCC(N)=O)NC(=O)[C@H](CCCNC(=N)N)NC(=O)[C@H](CO)NC(=O)[C@H](CCSC)NC(=O)[C@H](CCCNC(=N)N)NC(=O)[C@H](CCCCN)NC(=O)[C@H](CCC(=O)O)NC(=O)[C@H](Cc1c[nH]c2ccccc12)NC(=O)CNC(=O)[C@@H]1CCCN1C(=O)[C@@H]1CCCN1C(=O)[C@H](CC(C)C)NC(=O)[C@@H](N)CCCCN)C(C)C)C(=O)N[C@H](C(=O)N[C@@H](CC(N)=O)C(=O)N[C@@H](C)C(=O)N[C@@H](CO)C(=O)N[C@@H](CCC(N)=O)C(=O)N[C@@H](Cc1ccccc1)C(=O)N[C@@H](CCC(=O)O)C(=O)N[C@@H](CCCNC(=N)N)C(=O)N1CCC[C@H]1C(=O)N[C@@H](CO)C(=O)NCC(=O)O)[C@@H](C)O [18Q] | 7.8 ±0.4 | 58.5 ±0.2
CC[C@H](C)[C@H](NC(=O)[C@H](Cc1c[nH]cn1)NC(=O)[C@H](CC(N)=O)NC(=O)[C@H](Cc1ccccc1)NC(=O)[C@H](Cc1ccc(O)cc1)NC(=O)[C@H](Cc1ccc(O)cc1)NC(=O)[C@@H](NC(=O)[C@H](CCCNC(=N)N)NC(=O)CNC(=O)[C@H](CO)NC(=O)[C@H](CO)NC(=O)[C@H](CCCNC(=N)N)NC(=O)[C@H](CO)NC(=O)[C@H](CCSC)NC(=O)[C@H](CCCNC(=N)N)NC(=O)[C@H](CCCCN)NC(=O)[C@H](CCC(=O)O)NC(=O)[C@H](Cc1c[nH]c2ccccc12)NC(=O)CNC(=O)[C@@H]1CCCN1C(=O)[C@@H]1CCCN1C(=O)[C@H](CC(C)C)NC(=O)[C@@H](N)CCCCN)C(C)C)C(=O)N[C@@H](CCC(N)=O)C(=O)N[C@@H](CC(N)=O)C(=O)N[C@@H](C)C(=O)N[C@@H](CO)C(=O)N[C@@H](CCC(N)=O)C(=O)N[C@@H](Cc1ccccc1)C(=O)N[C@@H](CCC(=O)O)C(=O)N[C@@H](CCCNC(=N)N)C(=O)N1CCC[C@H]1C(=O)N[C@@H](CO)C(=O)NCC(=O)O [29Q] | 47.2 ±2.6 | 45.3 ±0.5
